Reference: patent publication US10053468B2, “Heterocyclic compound” (TAKEDA PHARMACEUTICAL COMPANY LIMITED, priority 2013, dated 2018)
Like-named read-outs stand apart in the source and are kept apart here.

How the values were obtained:
RORγt [1] = biological target: T1, RORγt (Homo sapiens, UniProt P51449); experiment: RORγt binding test using fluorescent-labeled synthetic ligand (TR-FRET); conditions: read-out: Binding inhibitory rate of fluorescent-labeled synthetic ligand to RORγt at test compound 1 μM (%)
T1 sequence (P51449 1-497 isoform P51449-2): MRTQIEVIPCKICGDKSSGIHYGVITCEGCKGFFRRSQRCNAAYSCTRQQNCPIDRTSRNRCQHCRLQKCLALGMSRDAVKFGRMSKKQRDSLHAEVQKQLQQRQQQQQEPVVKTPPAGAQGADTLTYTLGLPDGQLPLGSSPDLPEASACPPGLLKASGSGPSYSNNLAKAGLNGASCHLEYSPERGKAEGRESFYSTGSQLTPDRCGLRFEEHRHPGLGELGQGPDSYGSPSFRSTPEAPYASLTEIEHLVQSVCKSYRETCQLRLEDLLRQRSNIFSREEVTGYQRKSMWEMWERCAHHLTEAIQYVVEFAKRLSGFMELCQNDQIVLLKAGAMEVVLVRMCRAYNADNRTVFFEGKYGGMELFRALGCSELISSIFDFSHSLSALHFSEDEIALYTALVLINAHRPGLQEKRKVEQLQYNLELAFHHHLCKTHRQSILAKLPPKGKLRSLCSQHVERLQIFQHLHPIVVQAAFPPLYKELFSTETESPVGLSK
Protocol: RORγt Binding Test Using Fluorescent-labeled Synthetic Ligand
(§1) The binding activity of the test compound to RORγt was measured by a time resolved fluorescence resonance energy transfer method (TR-FRET) utilizing histidine-tagged RORγt, fluorescent-labeled synthetic ligand, and terbium-labeled anti-histidine tag antibody (Invitrogen). First, a test compound diluted with an assay buffer (20 mM Tris-HCl (pH 7.5), 100 mM NaCl, 1 mM DTT, 0.1% BSA) was added to a 384 well plate by 3 μL. Then, RORγt diluted with an assay buffer to 240 nM was added by 3 μL, after which fluorescent-labeled synthetic ligand diluted with the assay buffer to 12 μM was added by 3 μL, and the mixture was stood at room temperature for 20 min. Thereafter, a terbium-labeled anti-histidine tag antibody diluted with the assay buffer to 8 nM was added by 3 μL. The mixture was stood at room temperature for 20 min, and fluorescence intensity (excitation wavelength 320 nm, fluorescence wavelength 520 nm, delay time 100 microseconds) was measured by Envision (PerkinElmer).

RORγt [2] = biological target: T1, RORγt; experiment: RORγt binding test using fluorescent-labeled cholesterol (TR-FRET); conditions: read-out: Binding inhibitory rate of fluorescent-labeled cholesterol to RORγt at test compound 1 μM (%)
Protocol: RORγt Binding Test Using Fluorescent-labeled Cholesterol
as §1, with “cholesterol (BODIPY-cholesterol, AVIVA),” for “synthetic ligand,”, “cholesterol” for “synthetic ligand”

RORγt [3] = biological target: T1, RORγt; experiment: Cofactor recruitment test (Alpha Screen, biotinylated SRC-1 peptide); assay type: biochemical; conditions: read-out: Signal value inhibitory rate at test compound 1 μM (%)
Protocol: Cofactor Recruitment Test
Cofactor recruitment test was performed by Alpha Screen (Histidine Detection Kit, PerkinElmer) method. First, a test compound was diluted with an assay buffer (50 mM Tris-HCl (pH 7.5), 50 mM KCl, 1 mM DTT, 0.1% BSA) and added to a 384 well plate by 5 μL. […] The mixture was stood in a dark place for 1 hr, and the signal value was measured by Envision (PerkinElmer).

RORγt [4] = biological target: T1, RORγt; experiment: Jurkat reporter test (human IL-17 ROR response element luciferase, RORγt vector); assay type: cell-based; conditions: read-out: Luminescence level inhibitory rate at test compound 3 μM (%)
Protocol: The Jurkat cells used for the reporter test were cultured in a culture medium (RPMI (Invitrogen), 10% FCS (AusGeneX), 100 U/mL penicillin, 100 μg/mL streptomycin). On the day of the test, 4×10^7 cells were recovered by a centrifugal operation (1000 rpm, 5 min.) and suspended in PBS (phosphate buffered saline) (Invitrogen). Thereafter, the cells were recovered again by a centrifugal operation, and suspended in 2 mL of R buffer (NEON transfection kit, Invitrogen). […] Gene transfer was performed by Electroporation apparatus (NEON, Invitrogen) under the conditions of pulse voltage 1350 V, interval 10 milliseconds, number of times 3. The cells after gene transfer were suspended in 40 mL of a reaction medium (RPMI, 10% Lipid reduced FCS (HyClone), 10 mM HEPES (pH 7.5), 100 U/mL penicillin, 100 μg/mL streptomycin, 5 μM lovastatin), and plated in a 96 well plate by 90 μL. A test compound diluted with the reaction medium was added by 10 μL, and the cells were cultured overnight in an incubator. Bright-Glo (Promega) was added by 100 μL, and the mixture was stirred at room temperature for 10 min, and the luminescence level was measured by Envision (PerkinElmer).

[5] = test compound 3 μM, Jurkat cells

| Structure (SMILES) | inhibition at 1 µM (RORγt [1]) | inhibition at 1 µM (RORγt [2]) | inhibition at 1 µM (RORγt [3]) | inhibition at 3 µM (RORγt [4]; Jurkat) | inhibition at 3 µM (RORγt [4]; [5]) |
| --- | --- | --- | --- | --- | --- |
| CC[Si](C)(C)c1c(F)cc(NC(=O)[C@H]2c3ccc(OC)cc3CCN2C(=O)Cc2cc(O)no2)cc1F [Example 88, (1R)-N-(4-(ethyl (dimethyl)silyl)-3,5-difluorophenyl)-2-((3-hydroxy-1,2-oxazol-5-yl)acetyl)-6-methoxy-1,2,3,4-tetrahydroisoquinoline-1-carboxamide] | 102% |  |  |  |  |
| CC[Si](C)(C)c1c(F)cc(NC(=O)[C@H]2c3ccc(COC)nc3CCN2C(=O)c2cc(O)no2)cc1F [Example 174, (5R)-N-(4-(ethyl (dimethyl)silyl)-3,5-difluorophenyl)-6-((3-hydroxy-1,2-oxazol-5-yl)carbonyl)-2-(methoxymethyl)-5,6,7,8-tetrahydro-1,6-naphthyridine-5-carboxamide] |  | 101% | 88% | 98% |  |
| CCOc1ccc2c(c1)CCN(C(=O)CCC(=O)O)[C@H]2C(=O)Nc1cc(F)c([Si](C)(C)C)c(F)c1 [Example 180, 4-((1R)-1-((3,5-difluoro-4-(trimethylsilyl)phenyl)carbamoyl)-6-ethoxy-3,4-dihydroisoquinolin-2(1H)-yl)-4-oxobutanoic acid] | 101% |  | 93% | 100% |  |
| CCOc1ccc2c(c1)CCN(C(=O)CCCC(=O)O)[C@H]2C(=O)Nc1cc(F)c2c(c1)CCC2(C)C [Example 182, 5-((1R)-6-ethoxy-1-((7-fluoro-1,1-dimethyl-2,3-dihydro-1H-inden-5-yl)carbamoyl)-3,4-dihydroisoquinolin-2(1H)-yl)-5-oxopentanoic acid] | 101% |  | 67% |  | 99% |
| CCOc1ccc2c(c1)CCN(C(=O)CCCC(=O)O)[C@H]2C(=O)Nc1ccc([Si](C)(C)C)c(F)c1 [Example 183, 5-((1R)-6-ethoxy-1-((3-fluoro-4-(trimethylsilyl)phenyl)carbamoyl)-3,4-dihydroisoquinolin-2 (1H)-yl)-5-oxopentanoic acid] | 101% |  | 91% | 102% |  |
| CCOc1ccc2c(c1)CCN(C(=O)CCCC(=O)O)[C@H]2C(=O)Nc1cc(F)c([Si](C)(C)C)cc1F [Example 184, 5-((1R)-1-((2,5-difluoro-4-(trimethylsilyl)phenyl)carbamoyl)-6-ethoxy-3,4-dihydroisoquinolin-2(1H)-yl)-5-oxopentanoic acid] | 101% |  | 93% | 100% |  |
| C[Si](C)(C)c1ccc(NC(=O)[C@H]2c3ccc(OC(F)F)cc3CCN2C(=O)CCCC(=O)O)cc1F [Example 194, 5-((1R)-6-(difluoromethoxy)-1-((3-fluoro-4-(trimethylsilyl)phenyl)carbamoyl)-3,4-dihydroisoquinolin-2(1H)-yl)-5-oxopentanoic acid] | 101% |  | 87% | 100% |  |
| C[Si](C)(C)c1c(F)cc(NC(=O)[C@H]2c3ccc(OC(F)F)cc3CCN2C(=O)CCC(=O)O)cc1F [Example 195, 4-((1R)-6-(difluoromethoxy)-1-((3,5-difluoro-4-(trimethylsilyl)phenyl)carbamoyl)-3,4-dihydroisoquinolin-2 (1H)-yl)-4-oxobutanoic acid] | 101% |  | 89% | 101% |  |
| C[Si](C)(C)c1c(F)cc(NC(=O)[C@H]2c3ccc(OC(F)F)cc3CCN2C(=O)CCCC(=O)O)cc1F [Example 196, 5-((1R)-6-(difluoromethoxy)-1-((3,5-difluoro-4-(trimethylsilyl)phenyl)carbamoyl)-3,4-dihydroisoquinolin-2 (1H)-yl)-5-oxopentanoic acid] | 102% |  | 91% | 100% |  |
| CCOc1ccc2c(c1)CCN(C(=O)[C@H](O)CCC(=O)O)[C@H]2C(=O)Nc1cc(F)c([Si](C)(C)C)c(F)c1 [Example 209, (4R)-5-((1R)-1-((3,5-difluoro-4-(trimethylsilyl)phenyl)carbamoyl)-6-ethoxy-3,4-dihydroisoquinolin-2(1H)-yl)-4-hydroxy-5-oxopentanoic acid] | 102% |  | 87% | 99% |  |
| CCOc1ccc2c(c1)CCN(C(=O)CCCCC(=O)O)[C@H]2C(=O)Nc1cc(F)c2c(c1)CCC2(C)C [Example 210, 6-((1R)-6-ethoxy-1-((7-fluoro-1,1-dimethyl-2,3-dihydro-1H-inden-5-yl)carbamoyl)-3,4-dihydroisoquinolin-2(1H)-yl)-6-oxohexanoic acid] | 101% |  | 76% |  | 98% |
| CCOc1ccc2c(c1)CCN(C(=O)CCCCC(=O)O)[C@H]2C(=O)Nc1ccc([Si](C)(C)C)c(F)c1 [Example 211, 6-((1R)-6-ethoxy-1-((3-fluoro-4-(trimethylsilyl)phenyl)carbamoyl)-3,4-dihydroisoquinolin-2 (1H)-yl)-6-oxohexanoic acid] | 101% |  | 92% | 101% |  |
| CCOc1ccc2c(c1)CCN(C(=O)CCCC(=O)O)[C@H]2C(=O)Nc1ccc([Si](C)(C)C)c(C#N)c1 [Example 221, 5-((1R)-1-((3-cyano-4-(trimethylsilyl)phenyl)carbamoyl)-6-ethoxy-3,4-dihydroisoquinolin-2(1H)-yl)-5-oxopentanoic acid] | 102% |  | 97% | 101% |  |
| CCOc1ccc2c(c1)CCN(C(=O)NCCC(=O)O)[C@H]2C(=O)Nc1cc(F)c([Si](C)(C)C)c(F)c1 [Example 227, N-(((1R)-1-((3,5-difluoro-4-(trimethylsilyl)phenyl)carbamoyl)-6-ethoxy-3,4-dihydroisoquinolin-2(1H)-yl)carbonyl)-beta-alanine] | 102% |  | 95% | 101% |  |
| CCOc1ccc2c(c1)CCN(C(=O)N1CC(CC(=O)O)C1)[C@H]2C(=O)Nc1cc(F)c([Si](C)(C)C)c(F)c1 [Example 231, (1-(((1R)-1-((3,5-difluoro-4-(trimethylsilyl)phenyl)carbamoyl)-6-ethoxy-3,4-dihydroisoquinolin-2(1H)-yl)carbonyl)azetidin-3-yl)acetic acid] | 101% |  | 96% | 101% |  |
